Data taken from ChEMBL document CHEMBL4706653, “Ultra-short lipopeptides against gram-positive bacteria while alleviating antimicrobial resistance” (Eur J Med Chem, 2021).
Values after ≈ are worked out from the molar mass of the structure shown. Active and inactive are the calls of the source. The calls are words filed in the database; no cut-off is given here. Residues, ends and D or L forms follow the SMILES beside them. *: point of attachment. Myristoyl = CCCCCCCCCCCCCC(=O)*; Lauroyl = CCCCCCCCCCCC(=O)*

How the values were obtained:
Staphylococcus aureus [1] = assay: Antibiofilm activity against Staphylococcus aureus ATCC 25923 at 4 to 8 uM after 24 hrs by LIVE/DEAD (SYTO-9/PI) staining based confocal laser scanning microscopic analysis; type: functional, organism-based; conditions: dose 4-8 µM
Staphylococcus aureus [2] = assay: Antimicrobial activity against ciprofloxacin-resistant Staphylococcus aureus ATCC 25923 after 18 hrs in presence of polymyxin B by checkerboard assay; type: functional, organism-based
Staphylococcus aureus [3] = assay: Antimicrobial activity against methicillin-resistant Staphylococcus aureus 75 after 18 hrs by broth microdilution method; type: functional
Cell membrane [4] = assay: Induction of membrane disruption in Staphylococcus aureus ATCC 25923 assessed as irregular atrophy at 2 to 4 times MIC measured after 2 to 4 hrs by SEM analysis; type: subcellular; conditions: time 2-4 hrs
Staphylococcus aureus [5] = assay: Antibiofilm activity against Staphylococcus aureus ATCC 25923 assessed as biofilm thickness at 4 uM after 24 hrs using LIVE/LEAD (SYTO-9/PI) staining by confocal laser scanning microscopy based 3D image analysis (reference value: 55 micrometer); type: functional
Staphylococcus aureus [6] = assay: Potentiation of ciprofloxacin-induced antimicrobial activity against Staphylococcus aureus ATCC 25923 at 0.5 times MIC after 15 passages by broth microdilution method; type: functional, organism-based
Staphylococcus aureus [7] = assay: Antibiofilm activity against ciprofloxacin-resistant Staphylococcus aureus ATCC 25923 at 0.5 to 8 uM after 24 hrs by crystal violet staining based assay; type: functional, organism-based; conditions: dose 0.5-8 µM
Staphylococcus aureus [8] = assay: Antimicrobial activity against Staphylococcus aureus ATCC 25923 after 18 hrs in presence of CaCl2 by broth microdilution method; type: functional
[9] = system: Staphylococcus epidermidis; assay: Antimicrobial activity against ciprofloxacin-resistant Staphylococcus epidermidis ATCC 12228 at 0.5 to 8 uM measured after 18 hrs in presence of ciprofloxacin by checkerboard assay; type: functional, organism-based; conditions: dose 0.5-8 µM
Staphylococcus aureus [10] = assay: Antibiofilm activity against Staphylococcus aureus ATCC 25923 preformed biofilm assessed as reduction in preformed biofilm thickness after 24 hrs using LIVE/LEAD (SYTO-9/PI) staining by confocal laser scanning microscopy based 3D image analysis; type: functional, organism-based; conditions: dose 32-64 µM
Staphylococcus aureus [11] = assay: Potentiation of EtBr-induced antimicrobial activity against ciprofloxacin-resistant Staphylococcus aureus ATCC 25923 at 1 to 2 uM after 18 hrs by broth microdilution method; type: functional, organism-based; conditions: dose 1-2 µM
[12] = Therapeutic index, ratio of MHC for mouse RBC to geometric mean of peptide MIC for Staphylococcus epidermidis ATCC 12228; type: toxicity; conditions: pooled result: one value given for 6 cell lines, strains, targets or settings, read-out: TI
Cell membrane [13] = assay: Induction of membrane disruption in Staphylococcus aureus ATCC 25923 measured after 2 hrs by propidium iodide staining based confocal laser scanning microscopic analysis; type: subcellular
[14] = system: Staphylococcus epidermidis; assay: Potentiation of ciprofloxacin-induced antimicrobial activity against ciprofloxacin-resistant Staphylococcus epidermidis ATCC 12228 assessed as change in ciprofloxacin MIC at 4 uM after 18 hrs by broth microdilution method relative to ciprofloxacin MIC; type: functional
Staphylococcus aureus [15] = assay: Antimicrobial activity against Staphylococcus aureus ATCC 25923 after 18 hrs in presence of 2.5% serum by broth microdilution method; type: functional
Lipopolysaccharide (LPS) = assay: Binding affinity to LPS (unknown origin) assessed as bacterial killing at 2 times MIC preincubated for 1 hr followed by Staphylococcus aureus ATCC 25923 addition and measured after 2 hrs by colony counting method; conditions: time 3.0 hrs
Cell membrane [16] = assay: Induction of membrane disruption in Staphylococcus aureus ATCC 25923 assessed as increase in cell content leakage at 4 times MIC measured after 2 to 4 hrs by SEM analysis; type: subcellular; conditions: time 2-4 hrs
[17] = system: Staphylococcus epidermidis; assay: Potentiation of ciprofloxacin-induced antimicrobial activity against ciprofloxacin-resistant Staphylococcus epidermidis ATCC 12228 assessed as ciprofloxacin MIC at 0.5 times MIC after 15 passages by broth microdilution method; type: functional
Staphylococcus aureus [18] = assay: Antimicrobial activity against methicillin-resistant Staphylococcus aureus 75 at 0.5 to 8 uM measured after 18 hrs in presence of ciprofloxacin by checkerboard assay; type: functional, organism-based; conditions: dose 0.5-8 µM
Staphylococcus aureus [19] = assay: Ratio of MIC for antimicrobial activity against Staphylococcus aureus ATCC 25923 in presence of 5% serum to MIC for antimicrobial activity against Staphylococcus aureus ATCC 25923 in absence of serum; type: functional
[20] = system: Staphylococcus epidermidis; assay: Antimicrobial activity against ciprofloxacin-resistant Staphylococcus epidermidis ATCC 12228 at 0.5 times MIC after 15 passages by broth microdilution method; type: functional, organism-based
Staphylococcus aureus [21] = assay: Antibiofilm activity against Staphylococcus aureus ATCC 25923 at 0.5 to 8 uM after 24 hrs in presence of ciprofloxacin by checkerboard assay; type: functional, organism-based; conditions: dose 0.5-8 µM
[22] = system: Staphylococcus epidermidis; assay: Potentiation of ciprofloxacin-induced antimicrobial activity against ciprofloxacin-resistant Staphylococcus epidermidis ATCC 12228 at 1 uM after 18 hrs by broth microdilution method; type: functional, organism-based
[23] = system: Staphylococcus epidermidis; assay: Antimicrobial activity against Staphylococcus epidermidis ATCC 12228 after 18 hrs by broth microdilution method; type: functional
Staphylococcus aureus [24] = assay: Antimicrobial activity against Staphylococcus aureus ATCC 25923 after 18 hrs in presence of 10% serum by broth microdilution method; type: functional
[25] = system: Staphylococcus epidermidis; assay: Potentiation of ciprofloxacin-induced antimicrobial activity against ciprofloxacin-resistant Staphylococcus epidermidis ATCC 12228 assessed as change in ciprofloxacin MIC at 2 uM after 18 hrs by broth microdilution method relative to ciprofloxacin MIC; type: functional
Staphylococcus aureus [26] = assay: Antimicrobial activity against Staphylococcus aureus ATCC 25923 after 18 hrs in presence of NH4Cl by broth microdilution method; type: functional
Staphylococcus aureus [27] = assay: Potentiation of ciprofloxacin-induced antimicrobial activity against methicillin-resistant Staphylococcus aureus 75 assessed as change in ciprofloxacin MIC at 1 uM after 18 hrs by broth microdilution method relative to ciprofloxacin MIC; type: functional
Staphylococcus aureus [28] = assay: Antimicrobial activity against methicillin-resistant Staphylococcus aureus 75 measured after 18 hrs in presence of polymyxin B by checkerboard assay; type: functional, organism-based
Staphylococcus aureus [29] = assay: Potentiation of ciprofloxacin-induced antimicrobial activity against ciprofloxacin-resistant Staphylococcus aureus ATCC 25923 assessed as change in ciprofloxacin MIC at 4 uM after 18 hrs by broth microdilution method relative to ciprofloxacin MIC; type: functional
Staphylococcus aureus [30] = assay: Antimicrobial activity against ciprofloxacin-resistant Staphylococcus aureus ATCC 25923 at 0.5 times MIC after 15 passages by broth microdilution method; type: functional, organism-based
Staphylococcus aureus [31] = assay: Induction of nucleic acid leakage in Staphylococcus aureus ATCC 25923 at 4 times MIC; type: functional
Staphylococcus aureus [32] = assay: Antimicrobial activity against Staphylococcus aureus ATCC 25923 after 18 hrs in presence of 5% serum by broth microdilution method; type: functional
Erythrocyte = assay: Hemolytic activity against mouse erythrocytes measured after 1 hr; type: ADME, cell-based
Staphylococcus aureus [33] = assay: Antibiofilm activity against ciprofloxacin-resistant Staphylococcus aureus ATCC 25923 at 0.5 to 8 uM after 24 hrs in presence of ciprofloxacin by checkerboard assay; type: functional, organism-based; conditions: dose 0.5-8 µM
Staphylococcus aureus [34] = assay: Antimicrobial activity against ciprofloxacin-resistant Staphylococcus aureus ATCC 25923 after 18 hrs by broth microdilution method; type: functional, organism-based
Staphylococcus aureus [35] = assay: Antibiofilm activity against Staphylococcus aureus ATCC 25923 preformed biofilm at 32 to 64 uM after 24 hrs by LIVE/DEAD (SYTO-9/PI) staining based confocal laser scanning microscopic analysis; type: functional, organism-based; conditions: dose 32-64 µM
Staphylococcus aureus [36] = assay: Ratio of MIC for antimicrobial activity against Staphylococcus aureus ATCC 25923 in presence of 10% serum to MIC for antimicrobial activity against Staphylococcus aureus ATCC 25923 in absence of serum; type: functional

| Compound | Activity (Staphylococcus aureus [1]) | Activity (Staphylococcus aureus [2]) | MIC (Staphylococcus aureus [3]) | Activity (Cell membrane [4]) | Activity (Staphylococcus aureus [5]) | Activity (Staphylococcus aureus [6]) | Activity (Staphylococcus aureus [7]) | MIC (Staphylococcus aureus [8]) | Activity [9] | Activity (Staphylococcus aureus [10]) | Activity (Staphylococcus aureus [11]) | selectivity ratio [12] | Activity (Cell membrane [13]) | fold change (FC) [14] | MIC (Staphylococcus aureus [15]) | Activity (Lipopolysaccharide (LPS)) | Activity (Cell membrane [16]) | MIC [17] | Activity (Staphylococcus aureus [18]) | Ratio (Staphylococcus aureus [19]) | further results |
| --- | --- | --- | --- | --- | --- | --- | --- | --- | --- | --- | --- | --- | --- | --- | --- | --- | --- | --- | --- | --- | --- |
| CCCCCCCCCCCC(=O)N[C@@H](CCCNC(=N)N)C(=O)N[C@@H](CCCNC(=N)N)C(=O)N[C@@H](Cc1c[nH]c2ccccc12)C(N)=O (Lauroyl-Arg-Arg-Trp-NH2) | Active | Active | 4 µM (≈ 2.79 µg/mL) | Active | 24 um | Active | Active | 16 µM | Active | Dose-dependent effect | Active | 34.9 | Dose-dependent effect | 2 | 32 µM | Active | Active | 8 µM | Active | 8 | Activity [20]: Active; Activity (Staphylococcus aureus [21]): inactive; Activity [22]: inactive; MIC [23]: 4 µM (≈ 2.79 µg/mL); MIC (Staphylococcus aureus [24]): 64 µM; fold change (FC) [25]: 2; MIC (Staphylococcus aureus [26]): 4 µM; fold change (FC) (Staphylococcus aureus [27]): 2; Activity (Staphylococcus aureus [28]): Active; fold change (FC) (Staphylococcus aureus [29]): 2; Activity (Staphylococcus aureus [30]): Active; Activity (Staphylococcus aureus [31]): inactive; MIC (Staphylococcus aureus [32]): 64 µM; MHC10 (Erythrocyte): 128 µM; Activity (Staphylococcus aureus [33]): Active; Activity (Staphylococcus aureus [34]): Active; Activity (Staphylococcus aureus [35]): Active; Ratio (Staphylococcus aureus [36]): 8 |
| CCCCCCCCCCCCCC(=O)N[C@@H](CCCNC(=N)N)C(=O)N[C@@H](Cc1c[nH]c2ccccc12)C(=O)N[C@@H](Cc1c[nH]c2ccccc12)C(N)=O (Myristoyl-Arg-Trp-Trp-NH2) | Active | Active | 4 µM (≈ 3.02 µg/mL) | Active | 30 um | Active | Active | 8 µM | Active | Dose-dependent effect | Active | 56.9 | Dose-dependent effect | 2 | 8 µM | Active | Active | 8 µM | Active | 2 | Activity [20]: Active; Activity (Staphylococcus aureus [21]): inactive; Activity [22]: inactive; MIC [23]: 16 µM (≈ 12.1 µg/mL); MIC (Staphylococcus aureus [24]): 16 µM; fold change (FC) [25]: 2; MIC (Staphylococcus aureus [26]): 4 µM; fold change (FC) (Staphylococcus aureus [27]): 2; Activity (Staphylococcus aureus [28]): Active; fold change (FC) (Staphylococcus aureus [29]): 2; Activity (Staphylococcus aureus [30]): Active; Activity (Staphylococcus aureus [31]): inactive; MIC (Staphylococcus aureus [32]): 16 µM; MHC10 (Erythrocyte): > 256 µM; Activity (Staphylococcus aureus [33]): Active; Activity (Staphylococcus aureus [34]): Active; Activity (Staphylococcus aureus [35]): Active; Ratio (Staphylococcus aureus [36]): 2 |
